Key:
[1] = target: T1, Signal transducer and activator of transcription 1-alpha/beta (Homo sapiens, UniProt P42224); test: Inhibition of IFNgamma-induced STAT1 (unknown origin)
T1 sequence (P42224 whole entry): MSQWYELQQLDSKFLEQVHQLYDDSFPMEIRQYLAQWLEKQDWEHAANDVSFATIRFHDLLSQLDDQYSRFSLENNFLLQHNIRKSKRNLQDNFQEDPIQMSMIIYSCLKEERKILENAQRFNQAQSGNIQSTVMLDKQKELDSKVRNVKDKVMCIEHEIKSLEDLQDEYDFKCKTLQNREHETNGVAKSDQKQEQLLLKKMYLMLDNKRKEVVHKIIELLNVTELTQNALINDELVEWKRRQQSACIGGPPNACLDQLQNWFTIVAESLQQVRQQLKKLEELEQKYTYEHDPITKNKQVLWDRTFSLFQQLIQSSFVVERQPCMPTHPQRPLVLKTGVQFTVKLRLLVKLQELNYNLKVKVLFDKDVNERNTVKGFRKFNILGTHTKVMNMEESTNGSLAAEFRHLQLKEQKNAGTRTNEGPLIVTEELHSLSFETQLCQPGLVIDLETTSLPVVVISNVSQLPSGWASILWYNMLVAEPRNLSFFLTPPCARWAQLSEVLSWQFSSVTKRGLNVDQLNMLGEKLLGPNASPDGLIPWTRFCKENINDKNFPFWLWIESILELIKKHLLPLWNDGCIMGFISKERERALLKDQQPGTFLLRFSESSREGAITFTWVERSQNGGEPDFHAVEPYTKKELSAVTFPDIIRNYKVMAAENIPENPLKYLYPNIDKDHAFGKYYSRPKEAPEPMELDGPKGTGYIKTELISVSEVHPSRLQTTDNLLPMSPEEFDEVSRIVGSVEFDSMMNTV

[2] = Inhibition of IL6-induced STAT3 in human CAL33 cells

Molecule `Clc1ccc(C2=Nn3c(nnc3-c3[nH]nc4c3CCC4)SC2)cc1Cl` has an IC50 [1] of over 50 µM.
With `Clc1ccc(C2=Nn3c(nnc3-c3cc(-c4ccccc4)n[nH]3)SC2)cc1Cl` the IC50 [1] was over 50 µM.
Molecule `Clc1ccc(C2=Nn3c(nnc3-c3[nH]nc4c3CCC4)SC2)cc1` has an IC50 [1] of over 50 µM.
Work on `Clc1cccc(C2=Nn3c(nnc3-c3[nH]nc4c3CCC4)SC2)c1` yielded an IC50 [1] of over 50 µM.
Work on `c1ccc(C2=Nn3c(nnc3-c3[nH]nc4c3CCC4)SC2)cc1` yielded an IC50 [1] of over 50 µM.
With `c1ccc(C2=Nn3c(nnc3-c3cc(-c4ccccc4)[nH]n3)SC2)cc1` the IC50 [1] was over 50 µM.
With `COc1ccc(C2=Nn3c(nnc3-c3cc(-c4ccccc4)n[nH]3)SC2)cc1` the IC50 [1] was over 50 µM and the IC50 [2] was 3.7 µM.
For `c1cc(C2=Nn3c(nnc3-c3[nH]nc4c3CCC4)SC2)ccn1`, the IC50 [1] was over 50 µM and the IC50 [2] was over 50 µM.
`c1ccc(-c2cc(-c3nnc4n3N=C(c3ccncc3)CS4)[nH]n2)cc1` gave an IC50 [1] of over 50 µM and an IC50 [2] of over 50 µM.
Molecule `Clc1ccc(C2=Nn3c(nnc3-c3[nH]nc4c3CCC4)SC2)s1` has an IC50 [1] of over 50 µM.
`Clc1ccc(C2=Nn3c(nnc3-c3cc(-c4ccccc4)n[nH]3)SC2)s1` showed an IC50 [1] of over 50 µM and an IC50 [2] of over 50 µM.
Molecule `C1=Nn2c(nnc2-c2[nH]nc3c2CCC3)SC1` has an IC50 [1] of over 50 µM and an IC50 [2] of over 50 µM.
Molecule `C1=Nn2c(nnc2-c2cc(-c3ccccc3)n[nH]2)SC1` has an IC50 [1] of over 50 µM and an IC50 [2] of over 50 µM.
`CC1=Nn2c(nnc2-c2[nH]nc3c2CCC3)SC1` gave an IC50 [1] of over 50 µM and an IC50 [2] of over 50 µM.
Work on `CC1=Nn2c(nnc2-c2cc(-c3ccccc3)[nH]n2)SC1` yielded an IC50 [1] of over 50 µM and an IC50 [2] of over 50 µM.
With `C1CCC(C2=Nn3c(nnc3-c3[nH]nc4c3CCC4)SC2)CC1` the IC50 [1] was over 50 µM and the IC50 [2] was over 30 µM.
In the case of `c1ccc(-c2cc(-c3nnc4n3N=C(C3CCCCC3)CS4)[nH]n2)cc1`, the IC50 [1] is reported as over 50 µM and the IC50 [2] is reported as over 50 µM.
Work on `COc1ccc(C2CSc3nnc(-c4[nH]nc5c4CCC5)n3N2)cc1` (stereo not drawn) yielded an IC50 [2] of over 50 µM.
`COc1ccc(C2CSc3nnc(-c4cc(-c5ccccc5)n[nH]4)n3N2C(C)=O)cc1` (stereo not drawn) showed an IC50 [2] of over 50 µM.
With `Fc1ccc(-c2cc(-c3nnc4n3N=C(c3ccc(Cl)c(Cl)c3)CS4)[nH]n2)cc1` the IC50 [2] was 7.5 µM.
With `Clc1ccc(-c2cc(-c3nnc4n3N=C(c3ccc(Cl)c(Cl)c3)CS4)[nH]n2)cc1` the IC50 [2] was 14.5 µM.
`Clc1ccc(C2=Nn3c(nnc3-c3[nH]nc4c3CCCC4)SC2)cc1Cl` showed an IC50 [2] of 15.5 µM.
Molecule `CC1Sc2nnc(-c3[nH]nc4c3CCC4)n2N=C1c1ccc(Cl)c(Cl)c1` (stereo not drawn) has an IC50 [1] of over 50 µM.
`COc1ccc(C2=Nn3c(nnc3-c3[nH]nc4c3CCC4)SC2C)cc1` (stereo not drawn) showed an IC50 [1] of over 50 µM.
In the case of `CC1Sc2nnc(-c3cc(-c4ccc(F)cc4)n[nH]3)n2N=C1c1ccccc1` (stereo not drawn), the IC50 [1] is reported as over 30 µM.
With `COc1ccc(C2=Nn3c(nnc3-c3cc(-c4ccc(F)cc4)n[nH]3)SC2C)cc1` (stereo not drawn) the IC50 [1] was over 30 µM.
Molecule `CC(C)C1Sc2nnc(-c3[nH]nc4c3CCC4)n2N=C1c1ccc(Cl)c(Cl)c1` (stereo not drawn) has an IC50 [1] of over 50 µM.
`COc1ccc(C2=Nn3c(nnc3-c3[nH]nc4c3CCC4)SC2C(C)C)cc1` (stereo not drawn) showed an IC50 [1] of over 50 µM.
For `CC(C)CC1Sc2nnc(-c3[nH]nc4c3CCC4)n2N=C1c1ccc(Cl)c(Cl)c1` (stereo not drawn), the IC50 [1] was over 50 µM.
`COc1ccc(C2=Nn3c(nnc3-c3cc(-c4ccccc4)n[nH]3)SC2CC(C)C)cc1` (stereo not drawn) gave an IC50 [1] of over 50 µM.
`Clc1ccc(C2=Nn3c(nnc3-c3[nH]nc4c3CCC4)SC2Cc2ccccc2)cc1Cl` (stereo not drawn) gave an IC50 [1] of over 50 µM.
In the case of `CC1(C)Sc2nnc(-c3[nH]nc4c3CCC4)n2N=C1c1ccc(Cl)c(Cl)c1`, the IC50 [1] is reported as over 50 µM.
`Clc1ccc(C2=Nn3c(nnc3-c3cc(-c4ccccc4)[nH]n3)SC2)cc1` [MLS000558549] gave an IC50 [1] of over 50 µM.

Source: BindingDB's records for doi:10.1016/j.bmcl.2016.06.017 (University of Pittsburgh, 2016)
